Assay results: publication PMC9227323, “The Potential of Cell-Penetrating Peptides for mRNA Delivery to Cancer Cells” (Pharmaceutics, 2022)
Several values for one entry are separate records, joined by “and”; a condition that tells them apart may be missing. Equal values may be shown once. Ends that are not written are not given here.

Legend:
[1] = Size and zeta-potential of CPP/mRNA complexes by DLS; format: physicochemical; conditions: for Particle Size / PDI / Zeta Potential: CPP/mRNA complex at the N/P ratio of Table 2; for Particle Size / PDI: DLS; for Particle Size / Zeta Potential: Zetasizer Nano ZS; for Particle Size: 50 μg CPP in 1 mL distilled water; for PDI / Zeta Potential: distilled water; for N/P Ratio (lowest N/P ratio to form the nanocomplexes): CPP/mRNA complex, amine groups of peptide to phosphate groups of mRNA
Description: The size and zeta-potential of CPP/mRNA complexes were measured by dynamic light scattering (DLS) using Zetasizer Nano ZS (Malvern Instruments, Malvern, UK); 50 μg of CPPs mixed with an optimized amount of mRNA were diluted in 1 mL of distilled water and then transferred to a cuvette.

CT26.CL25 cells [2] = test: Cellular uptake of fluorescein-labeled mRNA, flow cytometry; format: cell-based, mouse; conditions: CT26.CL25, 3 μg (6.8 nM) fluorescein-labeled mCherry mRNA with CPP or Lipofectamine 3000, serum-free media, 3 h, n = 3
Description: For the cellular uptake test, mCherry mRNA was labeled with fluorescein dye using the Label IT nucleic acid labeling kit (MIR 3200) (Mirus Bio, Madison, WI, USA). CT26.CL25 cells plated on a 35 mm glass bottom dish were incubated in 1.5 mL of serum-free media for 2 h. […] After treatment, CT26.CL25 cells were collected with PBS and FITC-positive cells were measured by a CytoFLEX flow cytometer (Beckman Coulter, Palo Alto, CA, USA) using FlowJo v10 software.

CT26.CL25 cells [3] = test: EGFP expression, flow cytometry; format: cell-based, mouse; conditions: CT26.CL25, EGFP mRNA 6.8 nM, 24 h, right plot of Figure 6B (amphipathic CPPs)
Description: (§1) To measure expression efficiency, cells seeded on a 35 mm glass bottom dish were incubated in 1.5 mL of serum-free media for 2 h. After incubation, mCherry mRNA with Lipofectamine 3000 or CPPs were treated for 3 h, washed, and incubated in complete medium for an additional 21 h. The expression of mCherry protein was visualized with a fluorescence microscope (EVOS M7000, ThermoFisher). The expression efficiency was calculated by counting the number of cells expressing fluorescence in the total number of cells. For quantification of expression efficiency, flow cytometry analyses were examined after 24 h treatment with CPP/EGFP mRNA. CT26.CL25 cells were collected with PBS and EGFP-expressing cells were measured by a CytoFLEX flow cytometer (Beckman Coulter) using FlowJo v10 software.

CT26.CL25 cells [4] = test: mCherry protein expression, fluorescence microscopy; format: cell-based, mouse; conditions: CT26.CL25, CPP/mCherry mRNA 6.8 nM, 24 h after treatment, n = 3
Description: as §1

mCherry mRNA = test: Gel shift assay, complexation capacity of CPP with mRNA; format: physicochemical; conditions: 350 ng mCherry mRNA, n = 3
Description: The mRNA was diluted in RNase-free water at 100 ng/μL and incubated with CPPs (1 μg/μL in RNase-free water) at room temperature (RT) for 1 h at 200 rpm. For in vitro studies, CPP/mRNA complexes were diluted with 1× PBS by adding 10× PBS after complexation. To visualize the complexation of mRNA and CPP, 350 ng of mCherry mRNA was mixed with increasing amounts of CPP and a gel shift assay was performed using a 1% agarose gel. Complexation capacity was measured based on mRNA band intensities by Image J. Complexation capacity (%) = 100 − ((Band intensity of mRNA)/(Band intensity of initial mRNA) × 100))

Substance | Particle Size [1] | PDI [1] | Zeta Potential [1] | N/P Ratio (lowest N/P ratio to form the nanocomplexes) [1] | FITC-positive cells (cellular uptake) (CT26.CL25 cells [2]) | EGFP-expressing cells (CT26.CL25 cells [3]) [%] | mCherry-positive cells (CT26.CL25 cells [4]) | amount of CPP at which complete complexes formed (mCherry mRNA) [nmol]
VSRRRRRRGGRRRR [LMWP, low molecular weight protamine, cationic cell-penetrating peptide, synthesized by Peptron] | 129.5 (±0.3) nm | 0.22 | +22.5 (±0.0) mV | 1.9 | 24.1% | – | – | –
Stearyl-RRRRRRRR [STR-Arg8, Stearyl-poly-Arginine8, amphipathic CPP, stearyl moiety introduced into Arg8] | 156.8 (±4.7) nm | 0.28 | +28.6 (±0.3) mV | 7.8 | 87.3% and > 85% | 14.6 | 4.9% | –
WEARLARALARALARHLARALARALRACEA [amphipathic cell-penetrating peptide, synthesized by Peptron] | 174.6 (±3.7) nm | 0.23 | +20.2 (±1.7) mV | 9.7 | 99.9% and > 85% | 29.5 | 28.9% | 1.0
Penetratin | – | – | – | – | 28.7% | – | incapable of protein expression | –
